How the values were obtained:
[1] = system: infantile female white swiss mouse; assay: Uterotropic Assay compared to estrone as standard; format: in vivo
[2] = biological target: T1, Calf uterine cytosolic estrogen receptor (Bos taurus, UniProt P49884); assay: Estrogen Receptor assay, competition with 6,7-3H2-estradiol; format: binding
T1 construct: Calf uterine cytosolic estrogen receptor; from tissue; host or cells: calf uterus, cytosol
T1 sequence (P49884 1-596): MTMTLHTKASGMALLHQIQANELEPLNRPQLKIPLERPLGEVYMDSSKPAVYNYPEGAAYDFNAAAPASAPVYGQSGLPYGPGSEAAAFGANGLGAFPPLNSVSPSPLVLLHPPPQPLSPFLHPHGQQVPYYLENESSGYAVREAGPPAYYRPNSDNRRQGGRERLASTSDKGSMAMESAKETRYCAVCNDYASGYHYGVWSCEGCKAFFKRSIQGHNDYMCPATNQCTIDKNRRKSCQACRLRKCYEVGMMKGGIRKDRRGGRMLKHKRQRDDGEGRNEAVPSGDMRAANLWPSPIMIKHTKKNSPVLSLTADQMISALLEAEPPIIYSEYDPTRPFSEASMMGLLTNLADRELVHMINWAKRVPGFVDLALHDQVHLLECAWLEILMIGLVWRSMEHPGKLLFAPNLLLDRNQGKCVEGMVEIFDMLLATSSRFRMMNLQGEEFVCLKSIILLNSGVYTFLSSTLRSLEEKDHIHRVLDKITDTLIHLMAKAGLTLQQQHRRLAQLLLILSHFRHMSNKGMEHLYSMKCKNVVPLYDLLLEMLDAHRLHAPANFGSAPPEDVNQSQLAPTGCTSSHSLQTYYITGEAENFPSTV

estrogen receptors = conditions: as described for the prior art; cited from earlier work
[3] = as described for the prior art; cited from earlier work

**Q.** With “(17β)-17-(1,2-dicarbadodecaboran(12)-1-yl)estra-1,3,5(10)-triene-3,17-diol 17-acetate [III]” as the substance, how does the “uterotropic activity relative to estrone” value ([1]; 3×3 assay, 5-6 animals per dose, estrone as standard) read?
**A.** about 80%

**Q.** What about the “response compared to estrone (uterotropic)” value ([1]; 4×4 assay, 9-10 animals per dose, estrone as standard) of the same substance?
**A.** 63%

**Q.** What about the “uterotopic response of estrone” value ([1]; summary statement, relative to estrone) of the same substance?
**A.** at least 63%

**Q.** And the “estrophilic activity relative to estradiol-17β 3-carboranylmethyl ether” value ([2]; compared with value reported in Steroids 37, 223 (1981))?
**A.** about two

**Q.** What about the “50% inhibition to binding” value ([2]; competition with 6,7-3H2-estradiol) of the same substance?
**A.** 1 Mole equivalent

**Q.** Which results are given for estradiol-17β 3-carboranylmethyl ether?
**A.** estrophilic activity (estrogen receptors): very low; uterotopic activity [3]: very low

From patent publication US4466952A, “Compositions and process for the treatment of cancer” (Indiana University Foundation, priority 1983, dated 1984)
